Source: US20060211606A1, “Peptides” (priority 2005, published 2006)
*1 amine or outer side, *2 acyl side, *3 side chain or, on linkers, in order; H or OH if unused. [ ]: non-standard residue; d: D form. PEG (Jeffamine) = not defined here; Suc = O=C(CCC(=O)[*:2])[*:1]

Key:
infarcted ovine heart = test: Ovine myocardial infarction, intracoronary injection, ejection fraction by echocardiography; format: in vivo; conditions: ovine MI; intracoronary injection 15 minutes after MI; ejection fraction day 6 vs day 1
Description: A myocardial infarction (MI) was induced in ovine hearts by catheterising a marginal branch of the circumflex coronary artery and injecting a small bolus of microspheres to induce localised ischemia. […] As a control, mature liver-type IGF-I was used.

[1] = system: normal lower limb (quadriceps) primary cultures; test: Desmin positive cell proliferation, normal lower limb (quadriceps) primary cultures; format: cell-based, human; conditions: for desmin positive cells as percentage of total cells: peptide alone, 10 ng/ml, mean±s.d.
Description: (§1) Human primary muscle cell cultures were isolated as previously described [Lewis et al., 2000; Sinanan et al., 2004]. Briefly, following informed consent, craniofacial (masseter) muscle biopsies were obtained from healthy adult and CMD patients during elective surgery at the Eastman and Middlesex Hospitals, London, UK. Human lower limb (vastus lateralis) muscle samples were obtained from consenting, adult healthy, FSHD and ALS patients by needle biopsy under local anaesthesia at the Royal Free Hospital, London, UK. Biopsies were pooled from several patients with the same disorder to obtain sufficient cell numbers in the primary cultures. These were washed with antibiotic (penicillin, 100 U/ml; streptomycin, 100 μg/ml; fungizone, 2.5 μg/ml; Invitrogen) supplemented DMEM (high glucose; Invitrogen), scissor-minced and tissue fragments plated into 0.2% gelatin-coated (Sigma-Aldrich) T150 cm^2 culture flasks (Helena Biosciences). Explant cultures were incubated in serum-containing Growth Media (sGM), composed of DMEM, 20% FCS (PAA Laboratories), penicillin (100 U/ml) and streptomycin ([…]) (Invitrogen), and maintained at 37° C. in humidified 95% air with 5% CO2. The first wave of migration of mononuclear cells from the explant was designated the […]-wave and this population was used throughout this study. Migratory human muscle cell were enzymatically harvested using trypsin-EDTA (Invitrogen) and subcultured in sGM until 70-80% confluency. Passage number x (Px), was defined as the xth sequential harvest of subconfluent cells. All experiments were performed using P3-5 cohorts. […]
(§2) At the appropriate time-points, cells were fixed with methanol for 10 min (−20° C.), followed by detergent permeabilization with 0.5% Triton-X100 for 10-15 min. […] Cell-associated fluorescence and morphology, were visualized by epi-fluorescence and Leica Modulation Contrast (LMC) microscopy respectively, using an inverted Leica DMIRB microscope equipped with Leica FW4000 image processing software. For the proliferation assay, all blue and green fluorescent positive cells were counted in a field. […]

[2] = system: primary cultures derived from congenital muscular dystrophy (CMD); test: Desmin positive cell proliferation, primary cultures from congenital muscular dystrophy (CMD); format: cell-based, human; conditions: for desmin positive cells as percentage of total cells: peptide alone, 10 ng/ml, mean±s.d.
Description: Human primary muscle cell cultures were isolated as previously described [Lewis et al., 2000; Sinanan et al., 2004]. Briefly, following informed consent, craniofacial (masseter) muscle biopsies were obtained from healthy adult and CMD patients during elective surgery at the Eastman and Middlesex Hospitals, London, UK. Human lower limb (vastus lateralis) muscle samples were obtained from consenting, adult healthy, FSHD and ALS patients by needle biopsy under local anaesthesia at the Royal Free Hospital, London, UK. Biopsies were pooled from several patients with the same disorder to obtain sufficient cell numbers in the primary cultures. These were washed with antibiotic (penicillin, 100 U/ml; streptomycin, 100 μg/ml; fungizone, 2.5 μg/ml; Invitrogen) supplemented DMEM (high glucose; Invitrogen), scissor-minced and tissue fragments plated into 0.2% gelatin-coated (Sigma-Aldrich) T150 cm^2 culture flasks (Helena Biosciences). Explant cultures were incubated in serum-containing Growth Media (sGM), composed of DMEM, 20% FCS (PAA Laboratories), penicillin (100 U/ml) and streptomycin ([…]) (Invitrogen), and maintained at 37° C. in humidified 95% air with 5% CO2. The first wave of migration of mononuclear cells from the explant was designated the […]-wave and this population was used throughout this study. Migratory human muscle cell were enzymatically harvested using trypsin-EDTA (Invitrogen) and subcultured in sGM until 70-80% confluency. Passage number x (Px), was defined as the xth sequential harvest of subconfluent cells. All experiments were performed using P3-5 cohorts. The expanded cells were then stored under cryogenic conditions until they were used in the experiments described below. At least 6 runs were made for each of the treatments used for each diseased muscle culture as well as for the two types of healthy muscle.
Assessment of the number of myogenic precursors was performed as described previously (Sinanan et al., 2004). Cells were re-plated on gelatin-coated (0.2%) 13 mm coverslips at an initial density of 4.5×10^3 cells cm^−2. […]
as §2

muscle cells from FSHD = test: Desmin positive cell proliferation, muscle cells from FSHD; format: cell-based, human; conditions: for desmin positive cells as percentage of total cells: peptide alone, 10 ng/ml, mean±s.d.
Description: as §1, §2

[3] = stabilised peptide in combination with IGF-I

Substance | effect on percentage of viable myocardium and ejection fraction (infarcted ovine heart) | desmin positive cells as percentage of total cells [1] | desmin positive cells as percentage of total cells, IGF-I added [1, 3] | desmin positive cells as percentage of total cells [2] | desmin positive cells as percentage of total cells, IGF-I added [2, 3] | desmin positive cells as percentage of total cells, plus anti-IGF-I receptor antibody Ab-1 ([2]; stabilised peptide plus Ab-1) | desmin positive cells as percentage of total cells (muscle cells from FSHD) | desmin positive cells as percentage of total cells, IGF-I added (muscle cells from FSHD; [3])
stabilised peptide: SEQ ID NO: 15 with D-Arginine at positions 14 and 15, N-terminus attached to PEG (Jeffamine) via succinic acid bridge, amidated at C-terminus ({PEG (Jeffamine)-Suc}-YQPPSTNKNTKSQ[dR][dR]KGSTFEEHK-NH2; reading uncertain) | markedly increase the percentage of viable myocardium and the ejection fraction | 57.9±3.2% | 38.8±0.6% | 17.5±1.6% | 13.1±1.2% | 16.7±1.8% | 20.4±2.1% | 14.5±1.4%
IGF-I: IGF-I receptor binding domain encoded by Exons 3 and 4, common to all splice variants, approximately 70 amino acids [reference compound] | much smaller effect | 47.1±3.5% |  | 13.2±1.7% |  |  | 14.1±1.6% | 
